Results published in PMC11722180, “Structure–Activity Relationship Studies of Tetracyclic Pyrrolocarbazoles Inhibiting Heterotetrameric Protein Kinase CK2” (Molecules, 2024).
Structures can show the parent of a compound that is named as a salt.

How the values were obtained:
CK2 = conditions: ATP competitive; read-out: CK2 inhibition IC50; cited from earlier work
[1] = test system: human prostate tumor cell line; set-up: method as in PMID 39698287; conditions: cited from earlier work
CK2α/CK2β interaction = conditions: read-out: Inhibition of CK2α/CK2β interaction IC50; cited from earlier work
CK2α subunit = test system: CK2α subunit; set-up: method as in PMID 18553057; conditions: read-out: Inhibition of the kinase activity of the CK2α subunit IC50; cited from earlier work
[2] = target: T1, CK2α/CK2β interaction (human CK2α1–335, human CK2β1–193) (Homo sapiens, UniProt P68400); assay: Microscale thermophoresis (MST) assay of the CK2α/CK2β subunit interaction; type: binding
T1 construct: human CK2α^1–335; made in house
T1 sequence (P68400 1-335): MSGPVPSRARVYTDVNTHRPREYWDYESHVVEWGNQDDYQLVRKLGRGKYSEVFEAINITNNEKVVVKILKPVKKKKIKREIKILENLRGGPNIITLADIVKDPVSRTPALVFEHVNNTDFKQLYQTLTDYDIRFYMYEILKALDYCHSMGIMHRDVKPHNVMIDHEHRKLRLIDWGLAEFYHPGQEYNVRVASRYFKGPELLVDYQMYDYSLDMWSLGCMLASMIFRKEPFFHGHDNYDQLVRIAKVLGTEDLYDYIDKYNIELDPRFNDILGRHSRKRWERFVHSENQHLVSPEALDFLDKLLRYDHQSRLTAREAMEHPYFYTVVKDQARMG
Procedure: A microscale thermophoresis (MST) assay was used to determine the interaction of the CK2α and CK2β subunits. In this assay, a constant concentration of the fluorescently labeled CK2β subunit was added to increasing concentrations of the CK2α subunit and the thermophoretic shift was recorded, respectively. […] The same experiment was performed in the presence of 20, 50, or 100 µM of the test compounds (see Table 1). An increased KD′ value in the presence of the test compounds was evaluated as the inhibition of the association of the CK2α and CK2β subunits. The increased KD′ value was then transformed together with the employed concentration of the test compound into the Ki value for the inhibition of the CK2α/CK2β association (formula see Supporting Information).
The compounds were investigated at a final concentration of 20, 50, or 100 µM. […] Data analysis and statistical evaluation were conducted with GraphPad Prism v.6 for Windows (GraphPad Software, La Jolla, CA, USA, www.graphpad.com).

CK2 holoenzyme (CK2α2β2) = target: T2, CK2 holoenzyme (CK2α2β2) (Homo sapiens, UniProt P68400); assay: Capillary electrophoresis assay, inhibition of the CK2 holoenzyme kinase activity; type: biochemical
T2 construct: made in house; host or cells: E. coli BL21(DE3)
Procedure: The inhibition of the catalytic activity of the CK2 holoenzyme (CK2α2β2) was determined in an enzyme assay. In brief, the CK2 holoenzyme was incubated with the decapeptide […] and ATP. The amount of phosphorylated peptide (Ser7) was recorded by capillary electrophoresis (CE).
The capillary electrophoresis assay to determine the inhibition of the CK2 holoenzyme (CK2α2β2) was performed as described in refs. [40, 46]. The CK2 holoenzyme was recombinantly expressed in E. coli BL21(DE3) and purified according to the protocol by Grankowski et al.. Enzymatic activity was determined in the presence of 1 µg of CK2α2β2, 60 µM of ATP, and 114 µM of the substrate peptide […]. The assay buffer contained 60 mM NaCl and 10 mM MgCl2. Inhibition was determined in three independent experiments at a compound concentration of 10 µM, and the mean value and the standard deviation (SD) were calculated.

T2 sequence (P68400 whole entry): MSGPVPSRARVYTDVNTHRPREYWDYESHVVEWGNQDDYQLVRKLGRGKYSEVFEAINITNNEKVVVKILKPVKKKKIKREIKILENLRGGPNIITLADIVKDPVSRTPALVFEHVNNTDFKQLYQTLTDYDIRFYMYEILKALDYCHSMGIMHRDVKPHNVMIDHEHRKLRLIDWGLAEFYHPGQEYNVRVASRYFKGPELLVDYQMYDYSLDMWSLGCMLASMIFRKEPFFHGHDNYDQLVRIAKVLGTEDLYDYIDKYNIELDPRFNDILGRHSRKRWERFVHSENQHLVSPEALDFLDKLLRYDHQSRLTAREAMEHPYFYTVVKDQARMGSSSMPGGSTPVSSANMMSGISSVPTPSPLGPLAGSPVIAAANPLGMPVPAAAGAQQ

For `O=C1CCc2c(oc3cc(Br)c(O)c(Br)c23)/C1=C/Nc1ccccc1` [2b], the IC50 (CK2) is listed as 5.8 nM and the Antiproliferative activity [1] is listed as “showed antiproliferative activity”.
In the case of `COc1cc([C@H]2c3c([nH]c4ccccc34)[C@@H](C(=O)N3C(=O)OC[C@@H]3Cc3ccccc3)[C@H]3C(=O)OC(=O)[C@@H]23)cc(OC)c1OC` [(+)-4 (W16)], the IC50 (CK2α/CK2β interaction) is listed as […] and the IC50 (CK2α subunit) is listed as 20 µM.
For `COC(=O)[C@H](Cc1c[nH]cn1)NC(=O)[C@H]1c2[nH]c3ccccc3c2[C@H](c2cc(OC)c(OC)c(OC)c2)[C@@H]2C(=O)NC(=O)[C@@H]21` [(+)-20a, Methyl N-{[(3aS,4R,10S,10aS)-1,3-dioxo-10-(3,4,5-trimethoxyphenyl)-1,2,3,3a,4,5,10,10a-octahydropyrrolo[3,4-b]carbazol-4-yl]carbonyl}-(S)-histidinate∙HCl], the Kd [2] was 101 ± 4 nM, the Ki ([2]; MST, global analysis, KD′ = KD [1 + (ccompound/Ki)], n.s. = KD′ not significantly different from KD, read-out: Inhibition of CK2α/CK2β Interaction Ki) was 6.1 µM and the IC50 (CK2 holoenzyme (CK2α2β2); CE assay, 60 µM ATP, 114 µM peptide […]) was 2500 nM. For the same compound, the inhibition at 10 µM (CK2 holoenzyme (CK2α2β2); first screening, test compound concentration 10 µM, read-out: Enzyme inhibition of CK2 holoenzyme) was > 50%.
